Here are results for one compound from article PMC9895451, “Genetic and pharmacologic inhibition of ALDH1A3 as a treatment of β-cell failure” (Nature Communications, 2023).

This test addresses T1, ALDH1A3 (Homo sapiens, UniProt P47895).
T1 sequence (P47895 2-512): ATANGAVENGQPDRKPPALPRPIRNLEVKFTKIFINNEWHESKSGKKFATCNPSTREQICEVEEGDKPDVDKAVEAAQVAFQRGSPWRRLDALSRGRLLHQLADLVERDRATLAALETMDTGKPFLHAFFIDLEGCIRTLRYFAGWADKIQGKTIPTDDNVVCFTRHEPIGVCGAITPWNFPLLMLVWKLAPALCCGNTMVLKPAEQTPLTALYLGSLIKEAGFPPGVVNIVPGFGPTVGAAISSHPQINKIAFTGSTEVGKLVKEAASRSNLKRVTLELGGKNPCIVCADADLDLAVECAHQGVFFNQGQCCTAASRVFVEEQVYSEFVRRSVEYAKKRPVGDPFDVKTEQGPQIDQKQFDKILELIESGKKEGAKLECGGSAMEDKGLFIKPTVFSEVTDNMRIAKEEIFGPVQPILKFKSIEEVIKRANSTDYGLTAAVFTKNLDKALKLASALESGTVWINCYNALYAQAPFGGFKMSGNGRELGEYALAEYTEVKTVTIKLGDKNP
The test can be described thus: Aldefluor assay in A375 cells; also recombinant human ALDH1a3 in crude bacterial lysate (resazurin/diaphorase-coupled). Type of test: cell-based. In general terms: Resazurin is reduced to fluorescent resorufin, in cell work by metabolically active cells.

The term IC50 denotes the concentration needed to halve the response being measured.

Each structure is given as a SMILES string.

For `CCc1cnccc1C(=O)Nc1cc2c(cc1F)NC(=O)CC2` [KOTX1], the IC50 was 5.1 nM.
